Laboratory results as given in patent US8466311B2, “Neuroprotective compositions and methods” (Sanford-Burnham Medical Research Institute, priority 2006, dated 2013).
“Also recorded” adds a separate entry of the source.

Key:
GSH [1] = test: Total GSH levels in cortical cultures; format: cell-based; settings: cortical cultures, control 46.8±4.5 nmol/mg protein
Method: Cell cultures, transfection, and glutathione (GSH) measurement. […] Transfection was performed with Lipofectamine 2000 (Invitrogen). In the reporter gene assays, firefly luciferase activity in cell lysates was measured with a luminometer (Promega). Total GSH (reduced and oxidized) was determined as described (Lee et al., Biochem. Biophys. Res. Commun. 280:286-292, 2001).
One caveat to the mechanism of NEPP and other electrophilic compounds acting at the level of Keap1 to induce HO-1 transcription is that NEPP could potentially react indiscriminately with other thiol-containing compounds in cells. To approach this question, we assessed cellular glutathione (GSH) levels to determine whether NEPP11 would affect this abundant antioxidant thiol. Nepp11 or N-ethylmaleimide (NEM) was added at t=0 and levels of total GSH were measured at the indicated times. GSH content of control cortical cultures (set arbitrarily at 100%) was 46.8±4.5 nmol/mg protein. […] In fact, this scenario seems likely, because the Keap1/Nrf2 pathway regulates the expression of γ-GCL in addition to HO-1 (Itoh et al., Mol. Cell. Biol. 24:36-45, 2004). […]
Transfections were performed with Lipofectamine 2000 (Invitrogen), and firefly luciferase activity in cell lysates was measured with a luminometer in the reporter gene assays (Promega).

[2] = tested on: thioredoxin and glutaredoxin; test: Expression of Trx and Grx genes in cortical cultures (RT-PCR); format: cell-based, rat; design: expression of the Trx and Grx genes: dose or concentration left out as unconfirmed
Method: One caveat to the mechanism of NEPP and other electrophilic compounds acting at the level of Keap1 to induce HO-1 transcription is that NEPP could potentially react indiscriminately with other thiol-containing compounds in cells. To approach this question, we assessed cellular glutathione (GSH) levels to determine whether NEPP11 would affect this abundant antioxidant thiol. Nepp11 or N-ethylmaleimide (NEM) was added at t=0 and levels of total GSH were measured at the indicated times. GSH content of control cortical cultures (set arbitrarily at 100%) was 46.8±4.5 nmol/mg protein. […] In fact, this scenario seems likely, because the Keap1/Nrf2 pathway regulates the expression of γ-GCL in addition to HO-1 (Itoh et al., Mol. Cell. Biol. 24:36-45, 2004). Besides GSH, cells have another major reduction pathway representing the thioredoxin-glutaredoxin system.
Lack of Effect of NEPP Compounds on Expression of Trx and Grx Genes. […]

HO-1 and γ-GCS = test: Phase 2 enzyme induction in brain (RT-PCR); format: in vivo, mouse; settings: food containing 0.03% CA for a week
Method: RT-PCR. In order to examine phase 2 gene induction by CA in PC12h cells and brain lysates, RT-PCR of total RNA from cortical cultures was performed using the following primer pairs (Hosoya et al., J. Bioi. Chern. 29:27244-27250, 2005; Kobayashi et al., Mol. Cell. Biol. 26:221-229, 2006): CypA (89 bp), 5′-ACAGGTCCTGGCATCTTGTC-3′ (SEQ ID NO: 18)(sense) and 5′-[…] -3′ (SEQ ID NO: 19)(antisense); H0-1 (284 bp), 5′-CAGTCGCCTCCAGAGTTTCC -3′ (SEQ ID NO: 20)(sense) and 5′- TACAAGGAGGCCATCACCAGC-3′ (SEQ ID NO: 21)(antisense); GCL-M (280 bp), 5′- CTGCTAAACTGTTCATTGTAGG-3′ (SEQ ID NO: 22)(sense) and 5′- CTA TTG GGT TIT ACC TGT G-3′ (SEQ ID NO: 23)(antisense); GCL-C (213 bp), 5′- GTC TIC AGG TGA ACA TIC CAA GC-3′ (SEQ ID NO: 24)(sense) and 5′- TGTTCTTCAGGGGCTCCAGTC-3′ (SEQ 10 NO: 25)(antisense); and NQO1 (212 bp), 5′- GTG TAC AGC ATI GGC CAC AC-3′ (SEQ 10 NO: 26)(sense) and 5′AAATGATGGCCCACAGAAAG-3′ (SEQ ID NO: 27)(antisense).
Mice were allowed free access to food containing 0.03% CA for a week. Their brains were then removed, and extracts were prepared and measured for GSH and GSSG levels. Under these conditions, CA increased both total GSH+GSSG and the ratio of GSH/GSSG (FIG. 6). […] Therefore, we concluded that orally-administered CA could not only reach the brain but was also effective in activating potentially neuroprotective pathways.

GSH [3] = test: Brain GSH and GSSG after feeding CA; format: in vivo, mouse; settings: food containing 0.03% CA for a week
Method: Mice were fed 0.03% CA for 1 week, and their brains were then removed, lysed and subjected to GSH and GSSG measurement.
Measurement of brain GSH. After exsanguination via heart puncture under ether anesthesia, mouse brains were removed and quickly frozen in liquid nitrogen. We ruled out GSH as a contaminant from blood vessels by HPLC analysis of blood components in the brain lysates.
The frozen brains were lysed with 1% sulfosalicylic acid on ice for 10 min, and total glutathione (reduced and oxidized) was determined as described previously (Sagara et al., 2002). Briefly, after the lysates had been incubated on ice for 10 min, the supernatants were collected after centrifugation in Eppendorf microfuge tubes. Upon neutralization of each supernatant with triethanolamine, the total glutathione (reduced and oxidized) concentration was determined. Pure GSH was used to obtain the standard curve. For the determination of oxidized GSH, the method of Griffith using 2-vinylpyridine was used to deplete the reduced GSH.
Mice were allowed free access to food containing 0.03% CA for a week. Their brains were then removed, and extracts were prepared and measured for GSH and GSSG levels. Under these conditions, CA increased both total GSH+GSSG and the ratio of GSH/GSSG (FIG. 6). […]

PC12h cells = test: Oxidative glutamate toxicity in PC12h cells (MTT assay); format: cell-based
Method: PC12h cells, PC12hW1B cells, and PC12hD5D cells (expressing Nrf2DN) were incubated with various concentrations of glutamate for 20 h. […] Various concentrations of CA were added to PC12, PC or PC12hD5D cells 1 h prior to exposure to 5 mM glutamate for 20 h.
PC12h and COST cell cultures.
Thus, we examined whether CA could protect PC12h cells from such insults. We prepared naïve PC12h cells, Nrf2WT-expressing PC12h cells (PC12hW1B), and Nrf2DN-expressing PC12h cells (PC12hD5D). In order to examine the effects of the Keap1/Nrf2 pathway on cell survival in the face of oxidative stress, we exposed the cells to a high concentration of glutamate. […] To visualize surviving and dead cells, we stained cultures with fluorescein diacetate (FDA) and propidium iodide (PI), respectively. Additionally, cell survival was quantified by the 3-(4,5-dimethylthiazol-2-yl)-2,5-diphenyl tetrazolium bromide (MTT) assay (FIG. 4A).
We next tested the hypothesis that CA-induced neuroprotection is mediated by the Keap1/NRf2 pathway.

| Structure (SMILES) | total GSH levels (GSH [1]) | expression of thioredoxin or glutaredoxin ([2]; NEPP11 1 μM) | expression of the Trx and Grx genes ([2]; NEPP11, 24 hr, RT-PCR) | induction of phase 2 enzymes HO-1 and γ-GCS in brain (HO-1 and γ-GCS) | ratio of GSH/GSSG in brain (GSH [3]) | total GSH+GSSG in brain (GSH [3]) | protective effects in PC12hD5D cells (Nrf2DN) (PC12h cells; CA) | concentrations protecting PC12h cells against oxidative glutamate toxicity (PC12h cells; dose-dependent, 5 mM glutamate 20 h, CA 1 h prior) [µM] |
| --- | --- | --- | --- | --- | --- | --- | --- | --- |
| COC(=O)CCCCC/C=C1/C(=O)C=C[C@H]1CCCCCCc1ccc(C)cc1 [NEPP11] | did not deplete GSH levels; also recorded: transiently increased | did not significantly affect | did not significantly affect | – | – | – | – | – |
| CC(C)c1cc2c(c(O)c1O)[C@@]1(C(=O)O)CCCC(C)(C)[C@@H]1CC2 [CA, carnosic acid] | – | – | – | significant induction | increased | increased | significantly suppressed | 0.1 to 1 |
